Test results as given in BindingDB's records for patent US20250026742 (Suzhou Ark Biopharmaceutical Co., 2025).

Biological target: Serine/threonine-protein kinase ATR (Homo sapiens, UniProt Q13535)
Test: ATR Enzyme Activity Inhibition Assay
Experimental: Prepare various buffer systems required for the experiment:1. […] Prepare detection buffer: Dilute each of the anti-phospho-p53-Eu cryptate (Cisbio, Cat #61P08KA) and anti-GST-d2 (Cisbio, Cat #61GSTDLB) to 1 unit using HTRF detection buffer (Cisbio, Cat #62SDBRDF).Powdered compounds were dissolved in DMSO to from a stock solution at a concentration of 10 mM. The solution of compounds to be tested at a concentration of […] was performed a 3-fold dilution for 10 concentrations with DMSO. […] 5 μL of ATR was added to each well accordingly. Each well is incubated at 25° C. for 10 min, added with 5 μL of reaction substrate, incubated at 25° C. for 90 min and added with 10 μL of detection solution.

Sequence of Serine/threonine-protein kinase ATR (Q13535 whole entry): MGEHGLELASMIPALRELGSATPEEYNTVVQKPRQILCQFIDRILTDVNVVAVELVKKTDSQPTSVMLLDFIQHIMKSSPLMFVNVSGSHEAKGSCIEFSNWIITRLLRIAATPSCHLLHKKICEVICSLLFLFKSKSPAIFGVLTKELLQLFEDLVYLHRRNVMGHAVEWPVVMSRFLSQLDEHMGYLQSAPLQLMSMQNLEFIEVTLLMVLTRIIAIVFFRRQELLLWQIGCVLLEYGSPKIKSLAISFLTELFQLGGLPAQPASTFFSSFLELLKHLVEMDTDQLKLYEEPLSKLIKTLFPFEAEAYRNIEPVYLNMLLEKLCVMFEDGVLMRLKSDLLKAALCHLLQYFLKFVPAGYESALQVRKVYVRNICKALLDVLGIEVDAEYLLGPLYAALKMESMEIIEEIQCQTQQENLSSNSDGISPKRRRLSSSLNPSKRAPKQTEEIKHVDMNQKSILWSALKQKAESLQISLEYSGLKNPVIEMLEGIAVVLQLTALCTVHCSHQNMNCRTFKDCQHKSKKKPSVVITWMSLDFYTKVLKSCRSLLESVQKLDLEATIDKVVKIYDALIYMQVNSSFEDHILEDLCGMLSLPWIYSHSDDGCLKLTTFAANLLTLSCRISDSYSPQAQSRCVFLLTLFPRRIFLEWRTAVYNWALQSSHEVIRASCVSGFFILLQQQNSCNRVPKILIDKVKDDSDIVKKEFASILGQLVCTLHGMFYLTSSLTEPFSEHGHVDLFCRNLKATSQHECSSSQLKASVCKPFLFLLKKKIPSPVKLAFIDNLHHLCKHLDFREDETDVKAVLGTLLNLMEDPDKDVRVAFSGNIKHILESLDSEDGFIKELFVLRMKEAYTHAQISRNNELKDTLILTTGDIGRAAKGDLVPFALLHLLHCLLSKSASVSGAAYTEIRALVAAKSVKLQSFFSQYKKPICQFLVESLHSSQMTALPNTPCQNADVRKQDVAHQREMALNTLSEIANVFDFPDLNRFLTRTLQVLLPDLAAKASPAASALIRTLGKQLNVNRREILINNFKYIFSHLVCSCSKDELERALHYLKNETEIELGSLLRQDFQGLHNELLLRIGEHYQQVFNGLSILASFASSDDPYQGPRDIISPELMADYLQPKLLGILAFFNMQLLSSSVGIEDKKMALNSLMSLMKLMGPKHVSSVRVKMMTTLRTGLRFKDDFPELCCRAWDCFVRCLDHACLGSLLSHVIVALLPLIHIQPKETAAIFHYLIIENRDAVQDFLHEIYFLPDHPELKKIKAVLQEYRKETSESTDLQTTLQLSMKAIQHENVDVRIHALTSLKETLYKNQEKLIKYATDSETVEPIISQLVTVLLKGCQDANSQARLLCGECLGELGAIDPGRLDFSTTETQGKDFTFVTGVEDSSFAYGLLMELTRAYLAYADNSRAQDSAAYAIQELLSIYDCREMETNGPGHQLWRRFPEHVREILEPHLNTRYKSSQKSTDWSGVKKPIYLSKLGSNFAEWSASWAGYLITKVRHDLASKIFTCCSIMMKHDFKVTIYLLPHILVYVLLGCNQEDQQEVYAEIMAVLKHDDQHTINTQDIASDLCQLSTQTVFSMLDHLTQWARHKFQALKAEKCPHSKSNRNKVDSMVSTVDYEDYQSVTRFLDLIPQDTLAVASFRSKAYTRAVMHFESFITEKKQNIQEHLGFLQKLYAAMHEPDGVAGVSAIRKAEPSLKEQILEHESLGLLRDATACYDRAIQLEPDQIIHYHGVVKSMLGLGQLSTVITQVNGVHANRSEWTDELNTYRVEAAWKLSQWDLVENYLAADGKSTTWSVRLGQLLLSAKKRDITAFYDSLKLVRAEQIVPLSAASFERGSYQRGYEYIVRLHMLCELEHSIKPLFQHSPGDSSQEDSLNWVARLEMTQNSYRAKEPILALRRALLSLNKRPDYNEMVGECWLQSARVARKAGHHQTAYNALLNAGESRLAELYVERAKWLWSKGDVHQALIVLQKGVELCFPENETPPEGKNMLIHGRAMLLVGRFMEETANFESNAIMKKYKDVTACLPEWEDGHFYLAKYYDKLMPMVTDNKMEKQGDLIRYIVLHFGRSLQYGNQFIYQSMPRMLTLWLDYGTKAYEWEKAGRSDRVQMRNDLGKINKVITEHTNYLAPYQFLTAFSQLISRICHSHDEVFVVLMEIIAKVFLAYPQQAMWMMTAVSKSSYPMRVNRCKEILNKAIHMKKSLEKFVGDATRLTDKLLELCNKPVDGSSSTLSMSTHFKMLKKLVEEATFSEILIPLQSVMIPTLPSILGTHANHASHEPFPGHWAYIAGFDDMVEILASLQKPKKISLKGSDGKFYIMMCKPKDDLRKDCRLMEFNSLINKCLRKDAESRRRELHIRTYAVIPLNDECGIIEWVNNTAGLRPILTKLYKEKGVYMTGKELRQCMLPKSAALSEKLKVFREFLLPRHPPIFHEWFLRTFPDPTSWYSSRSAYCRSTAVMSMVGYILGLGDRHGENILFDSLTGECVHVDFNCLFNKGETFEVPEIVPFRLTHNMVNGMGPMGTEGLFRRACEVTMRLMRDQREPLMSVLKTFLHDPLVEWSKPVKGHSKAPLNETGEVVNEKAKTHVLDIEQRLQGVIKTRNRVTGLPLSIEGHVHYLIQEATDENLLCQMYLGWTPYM

IC50 | Structure (SMILES)
2.53 nM | CN=S(C)(=O)c1ccc(-c2cnc(N)c(-c3cc(-c4ccc(CNC(=N)N)cc4)no3)n2)cc1 (stereo not drawn) [US20250026742, Example 12]
3.12 nM | CC(=N)Nc1ccc(-c2cc(-c3nc(-c4ccc(S(=O)(=O)C(C)C)cc4)cnc3N)on2)cc1 [US20250026742, Example 29]

Structure (SMILES) | IC50
CC(C)S(=O)(=O)c1ccc(-c2cnc(N)c(-c3cc(-c4ccc(CNC(N)=O)cc4)no3)n2)cc1 [US20250026742, Example 9] | 1.83 nM
